Assay [1] has as its system Pap1-transgenic petunia flowers. The experiment in a line: Phe feeding, volatile emission by dynamic headspace GC-MS. The assay is classed as in vivo, Petunia hybrida. How it is done: (§1) Volatiles emitted from detached petunia flowers were collected using an adsorbent trap consisting of a glass tube containing 200 mg of polymer Porapak Type Q (80/100 mesh; Alltech, Deerfield, Ill.) held in place with plugs of silanized glass wool (Guterman et al., 2006). Trapped volatiles were eluted using 3 ml hexane, and 2 μg iso-butylbenzene was added per sample as an internal standard for each. To determine pool sizes of volatile compounds, limbs were ground in liquid nitrogen and extracted in hexane (4 ml g^−1 of tissue) containing 0.5 μg ml^−1 iso-butylbenzene as the internal standard. Following overnight incubation with shaking at 150 rpm, extract was centrifuged at 10,500 g for 10 min and the supernatant filtered through a 25-ml syringe with a […] sterile nylon filter. To assess whether the bound form of benzaldehyde accumulated in petunia limbs, tissue (0.6 g) was incubated with 9 ml phosphate citrate buffer pH 4.5 with or without 15 units of glucosidase mixture Novarom G (Novo Nordisk Ferment Ltd., Bagsvaerd, Denmark) at 37° C. overnight, and then transferred to −20° C. to stop enzymatic reactions. Hexane (10 ml) containing 0.5 μg ml^−1 iso-butylbenzene as an internal standard was added to each sample, and following vortexing, the upper phase was recovered.
(§2) GC-MS analysis was performed using a device composed of a Pa1 auto-sampler (CTC Analytic, Zwingen, Switzerland), a TRACE GC 2000 equipped with an Rtx-5SIL MS (Restek, i.d. 0.25 μm, 30 m×0.25 mm) fused-silica capillary column, and a TRACE DSQ quadrupole mass spectrometer (ThermoFinnigan, Hemel, UK). Helium was used as the carrier gas at a flow rate of 0.9 ml min^−1. The injection temperature was set to 250° C. (splitless mode), the interface to 280° C., and the ion source adjusted to 200° C. The analysis was performed under the following temperature program: 5 min of isothermal heating at 50° C., followed by a 5° C. min^−1 oven temperature ramp to […], and a final increase from 250 to 280° C. at 10° C. min^−1. The transfer line temperature was 280° C. The system was equilibrated for 1 min at 70° C. before injection of the next sample. Mass spectra were recorded at 2 scan s^−1 with a scanning range of 40 to 450 mass-to-charge ratio, and an electron energy of 70 eV. Compounds were tentatively identified (>95% match) based on NIST/EPA/NIH Mass Spectral Library (Data Version: NIST 05, Software Version 2.0d) using the XCALIBUR v1.3 program (ThermoFinnigan) library. Further identification of compounds was based on comparison of mass spectra and retention times with those of authentic standards (Sigma, Milwaukee, Wis.) analyzed under similar conditions.
(§3) For evaluating the affect of Phe feeding on volatile production, control and Pap1-transgenic flowers were collected at 0800 hour and 1600 hour, placed in a glass vial containing 10 ml of water with or without 5 mg L-phenylalanine (Duchefa, Haarlem, Netherlands) and headspace was collected during the day (0800-1600 hours) and night (1600-0800 hours). To assess internal pools of volatiles, control and Pap1-transgenic flowers collected at 1600 hour were placed in a glass vial containing 10 ml of water with or without L-phenylalanine and at 2300 hour volatile were extracted as above.

The subject of assay [2] is control petunia flowers. The assay is described as above. The assay is classed as in vivo, Petunia hybrida. The following applies: during the night. How it is done: as §1, §2, §3
Where [3] appears, read: Phe fed vs non-fed Pap1-transgenic flowers, during the day.

Take `N[C@@H](Cc1ccccc1)C(=O)O` [Phe, L-phenylalanine]: in assay [1] (Pap1-transgenic flowers, Phe feeding during the night), the “volatile accumulation and emission” value is reported as “unaffected”. Besides, in assay [1] (setting [3]), the “increase in benzaldehyde emission” value was “about 7 fold” and the “increase in methylbenzoate emission” value is listed as roughly 5 fold. In assay [2], the “reduction in benzaldehyde emission” value was 2-3 fold and the “reduction in methylbenzoate emission” value is 2-3 fold.

These data come from patent US8735650B2, “Methods of modulating production of phenylpropanoid compounds in plants” (Yissum Research Development Company of the Hebrew …, priority 2007, dated 2014).
